According to patent publication US6624182B1, “Hydroxyphenylvinylthiazoles” (Ciba Specialty Chemicals Corporation, priority 1999, dated 2003):

Legend:
Test in all cases: Determination of the minimum inhibitory concentration (MIC value) in microtitre plates
P. aeruginosa = assay type: cell-based, Pseudomonas aeruginosa CIP A-22; details: optical density at 620 nm, 48 hours at 37° C., MIC = ≦20% growth; tested at 100; 10 and 1 ppm (approximate values); (2), (3), (4) at 120; 60; 30; 15; 7.5; 3.75 ppm
Description: (§1) Determination of the Minimum Inhibitory Concentration (MIC Value) in Microtitre Plates Nutrient Medium Casein/soybean flour/peptone bouillon for the preparation of preliminary cultures of the test bacteria and yeast. Mycological slant agar for the preliminary culture of moulds Examples of Test Microbes: Bacteria: Pseudomonas aeruginosa CIP A-22 Procedure: The test substances are pre-dissolved in dimethyl sulfoxide (DMSO) and tested in a series of dilutions of 1:2. Bacteria and yeast are cultured overnight in CASO bouillon; the mould is cultured on myco-logical slant agar and sponged off with 10 ml of 0.85% sodium chloride solution (+0.1% Triton X-100). All the test microbes are adjusted to a germ count of 1−5×10^6 KBE/ml using 0.85% sodium chloride solution. The test substances are pre-pipetted into microtitre plates in an amount of 8 μl per well. Pre-diluted microbe suspensions are diluted 1:100 in CASO bouillon (bacteria and yeast) or Sabouraud 2% glucose bouillon (mould) and added to the test substances in an amount of 192 μl per well. The test batches are incubated for 48 hours at 37° C. (bacteria and yeast) or for 5 days at 28° C. (mould). After incubation, the growth is determined by means of the clouding of the test batches (optical density) at 620 nm in a microplate reader. The concentration of substance at which (compared with the growth control) a marked inhibition of growth (≦20% growth) of the test microbes can be observed is given as the minimum inhibitory concentration (MIC value). One microtitre plate is used per test microbe and substance concentration. All substances are tested in duplicate.

C. albicans = assay type: cell-based, Candida albicans ATCC 10231; details: optical density at 620 nm, 48 hours at 37° C., MIC = ≦20% growth; tested at 100; 10 and 1 ppm (approximate values); (2), (3), (4) at 120; 60; 30; 15; 7.5; 3.75 ppm
Description: as §1, with “Yeast: Candida albicans ATCC 10231” for “Bacteria: Pseudomonas aeruginosa CIP A-22”

A. niger = assay type: cell-based, Aspergillus niger ATCC 6275; details: optical density at 620 nm, 5 days at 28° C., MIC = ≦20% growth; tested at 100; 10 and 1 ppm (approximate values); (2), (3), (4) at 120; 60; 30; 15; 7.5; 3.75 ppm
Description: as §1, with “Mould: Aspergillus niger ATCC 6275” for “Bacteria: Pseudomonas aeruginosa CIP A-22”

E. coli = assay type: cell-based, Escherichia coli NCTC 8196; details: optical density at 620 nm, 48 hours at 37° C., MIC = ≦20% growth; tested at 100; 10 and 1 ppm (approximate values); (2), (3), (4) at 120; 60; 30; 15; 7.5; 3.75 ppm
Description: as §1, with “Escherichia coli NCTC 8196” for “Pseudomonas aeruginosa CIP A-22”

S. aureus = assay type: cell-based; details: optical density at 620 nm, 48 hours at 37° C., MIC = ≦20% growth; tested at 100; 10 and 1 ppm (approximate values); (2), (3), (4) at 120; 60; 30; 15; 7.5; 3.75 ppm
From the text: as §1, with “Staphylococcus hominis DMS 20328” for “Pseudomonas aeruginosa CIP A-22”

Compound | MIC values in ppm P. aeruginosa (P. aeruginosa) [ppm] | MIC values in ppm C. albicans (C. albicans) [ppm] | MIC values in ppm A. niger (A. niger) [ppm] | MIC values in ppm E. coli (E. coli) [ppm] | MIC values in ppm S. aureus (S. aureus) [ppm]
CCOc1cc(/C=C/c2nc(CC)cs2)ccc1O [Compound of formula (42)] | >100 | >100 | >100 | >100 | >100
CCc1csc(/C=C/c2cccc(C)c2O)n1 [Compound of formula (48)] | >100 | >100 | >100 | >100 | >100
CCc1csc(/C=C/c2ccc(O)cc2)n1 [Compound of formula (39)] | >100 | >100 | >100 | >100 | >100
CCc1csc(/C=C/c2ccc(O)c(OC)c2)n1 [Compound of formula (43)] | >100 | >100 | >100 | >100 | >100
Cc1cccc(/C=C/c2nc(C(C)(C)C)cs2)c1O [Compound of formula (24)] | >100 | >100 | >100 | >100 | >100
CCc1csc(/C=C/c2cccc(O)c2)n1 [Compound of formula (40)] | >100 | >100 | >100 | >100 | >100

Second part, the compound after the results:

MIC values in ppm P. aeruginosa (P. aeruginosa) [ppm] | MIC values in ppm C. albicans (C. albicans) [ppm] | MIC values in ppm A. niger (A. niger) [ppm] | MIC values in ppm E. coli (E. coli) [ppm] | MIC values in ppm S. aureus (S. aureus) [ppm] | Compound
>100 | >100 | >100 | >100 | >100 | Cc1cc(/C=C/c2nc(-c3ccccc3)cs2)cc(C)c1O [Compound of formula (58)]
>100 | >100 | >100 | >100 | >100 | COc1ccc(/C=C/c2nc(-c3ccc(N4CCCC4)cc3)cs2)c(O)c1 [Compound of formula (32)]
>100 | >100 | >100 | >100 | >100 | COc1cc(O)ccc1/C=C/c1nc(-c2ccc(F)cc2)cs1 [Compound of formula (15)]
>100 | >100 | >100 | >100 | >100 | Oc1cc(OCc2ccccc2)ccc1/C=C/c1nc(-c2ccc(F)cc2)cs1 [Compound of formula (14)]
>100 | >100 | >100 | >100 | >100 | Cc1cccc(/C=C/c2nc(-c3ccccc3)cs2)c1O [Compound of formula (59)]
>100 | >100 | >100 | >100 | >100 | Oc1cccc(/C=C/c2nc(-c3ccc(N4CCCC4)cc3)cs2)c1 [Compound of formula (28)]
>100 | >100 | >100 | >100 | >100 | Oc1cccc(/C=C/c2nc(-c3ccc(F)cc3)cs2)c1 [Compound of formula (5)]
>100 | >100 | >100 | >100 | >100 | Oc1cc(OCc2ccccc2)ccc1/C=C/c1nc(-c2ccccc2)cs1 [Compound of formula (60)]
>100 | >100 | >100 | >100 | >100 | COc1cc(/C=C/c2nc(-c3ccccc3)cs2)ccc1O [Compound of formula (54)]
